The values that follow come from ChEMBL document CHEMBL3813652, “Arabinoamidine synthesis and its inhibition toward β-glucosidase (sweet almonds) in comparison to a library of galactonoamidines” (Bioorg Med Chem, 2016).

The nature of assay [1]: Inhibition of sweet almond beta-glucosidase assessed as enzymatic hydrolysis of 2-chloro-4-nitrophenyl beta-D-glucopyranoside preincubated with substrate for 20 mins followed by protein addition by UV-visible spectroscopy. On the set-up: species or system Prunus dulcis.
A short description of assay [2]: Inhibition of sweet almond beta-glucosidase assessed as enzyme mediated hydrolysis of 2-chloro-4-nitrophenyl beta-D-glucopyranoside preincubated with substrate for 30 mins followed by protein addition measured every 10 secs for 10 mins by UV-visible spectroscopy. On the set-up: species or system Prunus dulcis.
Assay [3] concerns Prunus dulcis. Kind of assay: Competitive inhibition of sweet almond beta-glucosidase assessed as enzymatic hydrolysis of 2-chloro-4-nitrophenyl beta-D-glucopyranoside at 0.0125 and 0.025 uM by Lineweaver-Burk plot.
The subject of assay [4] is Prunus dulcis. Kind of assay: Competitive inhibition of sweet almond beta-glucosidase assessed as enzymatic hydrolysis of 2-chloro-4-nitrophenyl beta-D-glucopyranoside at 200 and 1200 uM by Lineweaver-Burk plot.

Activity calls are given as the source filed them. No cut-off for these calls is given here.

Broadly, the IC50 is the concentration needed to halve the response being measured. By Ki is commonly meant a dissociation constant, usually derived from enzyme kinetics or from competition with a known ligand. Turning to `OC[C@H]1N/C(=N\Cc2ccccc2)[C@H](O)[C@@H](O)[C@H]1O`, in assay [1], the IC50 was 2.8 µM. The Ki in assay [2] was 108 µM.

Turning to `OC[C@H]1N/C(=N\Cc2ccc(F)cc2)[C@H](O)[C@@H](O)[C@H]1O`, the IC50 in assay [1] worked out at 4.7 µM. Besides, in assay [2], the Ki came to 57.5 µM.

Consider `CC(C)(C)c1ccc(C/N=C2\N[C@H](CO)[C@H](O)[C@H](O)[C@H]2O)cc1`, for which the IC50 in assay [1] worked out at 2.3 µM. Further, the Ki in assay [2] came to 14.7 µM.

In the case of `CCCCC(CC)CNC1=N[C@H](CO)[C@H](O)[C@H](O)[C@H]1O` (stereo partly drawn), the IC50 in assay [1] amounted to 2.5 µM. In assay [2], the Ki is 17.2 µM.

`Cc1ccccc1C/N=C1\N[C@H](CO)[C@H](O)[C@H](O)[C@H]1O`: the IC50 in assay [1] was 8.4 µM. Moreover, the Ki in assay [2] stood at 26.2 µM.

Take `OC[C@H]1N/C(=N\C2CC2)[C@H](O)[C@@H](O)[C@H]1O`: the IC50 in assay [1] turned out to be 32 µM. The Ki in assay [2] amounted to 11.8 µM.

With `Cc1ccc(C/N=C2\N[C@H](CO)[C@H](O)[C@H](O)[C@H]2O)cc1`, the inhibition entry in assay [3] and in assay [4] was “Active” each time. The IC50 in assay [1] worked out at 3 µM. Also, the Ki in assay [2] came out at 0.026 µM.

For `O=C1N[C@H](CO)[C@H](O)[C@H](O)[C@H]1O`, in assay [1], the IC50 was more than 1000 µM.

As for `CCCCCCC/N=C1\N[C@H](CO)[C@H](O)[C@H](O)[C@H]1O`, the half-maximal inhibitory concentration (IC50) in assay [1] amounted to 2.2 µM. For the same molecule, the Ki in assay [2] amounted to 29.6 µM.

As to `OC[C@H]1N/C(=N\Cc2ccccc2F)[C@H](O)[C@@H](O)[C@H]1O`, the IC50 in assay [1] is 1.8 µM. The Ki in assay [2] amounted to 118 µM.

For `OC[C@H]1N/C(=N\CCCc2ccccc2)[C@H](O)[C@@H](O)[C@H]1O`, the IC50 in assay [1] came to 1.3 µM. In assay [2], the Ki amounted to 28.1 µM.

With `OC[C@H]1N/C(=N\CC2CCCCCC2)[C@H](O)[C@@H](O)[C@H]1O`, the IC50 in assay [1] is 5 µM. For the same molecule, the Ki in assay [2] stood at 27.1 µM.

For the molecule `OC[C@H]1N/C(=N\Cc2ccc(C(F)(F)F)cc2)[C@H](O)[C@@H](O)[C@H]1O`, the IC50 in assay [1] was determined as 2.8 µM. The Ki in assay [2] is 87.9 µM.

`CCCCCCCCCCCC/N=C1\N[C@H](CO)[C@H](O)[C@H](O)[C@H]1O`: the 50% inhibitory concentration (IC50) in assay [1] is 0.4 µM. Besides, the Ki in assay [2] stood at 20.5 µM.

Take `OC[C@H]1N/C(=N\CC2CC2)[C@H](O)[C@@H](O)[C@H]1O`: the IC50 in assay [1] amounted to 19 µM. Moreover, the Ki in assay [2] was determined as 11.5 µM.

As to `CCC/N=C1\N[C@H](CO)[C@H](O)[C@H](O)[C@H]1O`, the IC50 in assay [1] is 4.8 µM. Besides, in assay [2], the Ki is 18.7 µM.

On to `OC[C@H]1N/C(=N\CC2CCCCC2)[C@H](O)[C@@H](O)[C@H]1O`, for which the IC50 in assay [1] was found to be 1.6 µM. Moreover, the Ki in assay [2] came out at 49.2 µM.

For the molecule `Cc1cccc(C/N=C2\N[C@H](CO)[C@H](O)[C@H](O)[C@H]2O)c1`, in assay [1], the IC50 was determined as 5.1 µM. Also, the inhibition constant Ki in assay [2] turned out to be 293 µM.

On to `Cc1ccc(CNC2=N[C@H](CO)[C@@H](O)[C@@H]2O)cc1`, for which the inhibition result in assay [3] and in assay [4] was “Active” each time. Moreover, the IC50 in assay [1] was determined as 6200 µM. In addition, in assay [2], the Ki came out at 970 µM.

Take `N=C1N[C@H](CO)[C@H](O)[C@H](O)[C@H]1O`: in assay [1], the IC50 was more than 1000 µM.

Regarding `Cc1ccc(CNC2=N[C@H](CO)[C@H](O)[C@H](O)C2)cc1`, the IC50 in assay [1] was more than 5000 µM. In assay [2], the Ki stood at 7.7 µM.

Take `COc1ccc(C/N=C2\N[C@H](CO)[C@H](O)[C@H](O)[C@H]2O)cc1`: the IC50 in assay [1] was determined as 13 µM. The inhibition constant Ki in assay [2] turned out to be 55.9 µM.

Take `OC[C@H]1N/C(=N\Cc2cccc(F)c2)[C@H](O)[C@@H](O)[C@H]1O`: the IC50 in assay [1] came to 11 µM. The Ki in assay [2] came to 124 µM.

With `CO[C@@H]1[C@H](O)[C@@H](O)C(NCc2ccc(C)cc2)=N[C@@H]1CO`, in assay [1], the IC50 was more than 5000 µM. Moreover, the Ki in assay [2] amounted to 13 µM.

As to `OC[C@H]1N/C(=N\C2CCCCC2)[C@H](O)[C@@H](O)[C@H]1O`, the IC50 in assay [1] is more than 5000 µM.

As to `CO[C@H]1C(NCc2ccc(C)cc2)=N[C@H](CO)[C@H](O)[C@@H]1O`, in assay [1], the IC50 is more than 5000 µM. Also, the Ki in assay [2] came to 5 µM.
